In patent US20190327974A1, “SYNERGISTS FOR IMPROVED PESTICIDES” (priority 2017, published 2019):

What was measured:
[1] = test system: Ostrinia nubilalis (European corn borer); assay: CPE combined with boronic acid derivatives on corn leaves; format: in vivo; details: for toxicity of the boronic acid derivative alone (in words): 0.2 mg/ml, some larvae death with 3.10 and 3.7 at 6 DAT; for efficacy on addition of the compound compared with CPE used alone (in words): 1 DAT and 3 DAT at the dose of 15.6 g a.i./ha; for Percentage of efficacy / Evaluation of Larvae number, Mean: boronic acid alone 0.2 mg/ml; for Evaluation of Larvae number, Mean: 12 larvae/box
Experimental: Treatments were performed by spraying a volume of mixture corresponding to 200 l/ha. 4 boxes/condition.
Drying 1 h at 20° C.; Deposit of three leaf fragments per box on water agar (4 box/condition); Infection of each leaf fragment with 4 Ostrinia nubilalis (12 larvae/box); Incubation 18° C./28° C. […] The percentage of mortality was calculated for each assessment times. Statistical analysis of the data was performed with XLSTAT® software (ANOVAs followed by Newman-Keuls tests with a threshold of 5%, see Table below).

293T = assay: Cell toxicity panel, viability (luminescence); format: cell-based; details: Homo sapiens, HEK-293T; Readout: Luminescence; read-out: IC50 Viability Cells, Cell line: 293T
Experimental: (§1) To further establish the safety and cell toxicity of compounds according to this invention, their IC50 in killing a broad panel of human cell lines (including both cancerous and non-cancerous) cell lines was determined, and their cell toxicity was tested.

Hela = assay: Cell toxicity panel, viability (luminescence); format: cell-based, human; details: Homo sapiens, HeLa; Readout: Luminescence; read-out: IC50 Viability Cells, Cell line: Hela
Experimental: as §1

Colo205 = assay: Cell toxicity panel, viability (luminescence); format: cell-based, human; details: Homo sapiens, COLO 205; Readout: Luminescence; read-out: IC50 Viability Cells, Cell line: Colo205
Experimental: as §1

PC3 = assay: Cell toxicity panel, viability (luminescence); format: cell-based, human; details: Homo sapiens, PC-3; Readout: Luminescence; read-out: IC50 Viability Cells, Cell line: PC3
Experimental: as §1

HCT116 = assay: Cell toxicity panel, viability (luminescence); format: cell-based, human; details: Homo sapiens, HCT-116; Readout: Luminescence; read-out: IC50 Viability Cells, Cell line: HCT116
Experimental: as §1

HT29 = assay: Cell toxicity panel, viability (luminescence); format: cell-based, human; details: Homo sapiens, HT-29; Readout: Luminescence; read-out: IC50 Viability Cells, Cell line: HT29
Experimental: as §1

HB-2 cells = assay: Cellular toxicity, Cell Titer Glo; format: cell-based, human; details: for IC50: Homo sapiens, 48 h incubation, Cell Titer Glo, read-out: Viability IC50 HB-2; for toxicity to HB-2 cells (in words): 48 h, up to 100 μM
Experimental: (§2) A seven-point, two-fold dose response series, with a 100 uM as the upper limit and a DMSO-only control point was generated using an Echo 550 liquid handler (Labcyte Inc.) in 384-well plates. Subsequently, the human breast cell lines MDA-MB-231 (tumorigenic) and HB2 (non-tumorigenic) were seeded (1000 cells/well) using a multi-drop Combi (Thermo Fisher Scientific) on top of the compounds. Plates were then incubated at 37° C. and 5% CO2 for 48 hours upon which cell viability was assessed by adding CellTiter-Glo® (Promega) to the reaction. The luminescence signal was measured on a Pherastar FS multi-mode plate reader (BMG Labtech).

MDA-MB-231 cells = assay: Cellular toxicity, Cell Titer Glo; format: cell-based, human; details: for IC50: Homo sapiens, MDA-MB-231, 48 h incubation, Cell Titer Glo, read-out: Viability IC50 MDA-MB-231
Experimental: as §2

[2] = target: T1, Electrophorus electricus AChE (Electrophorus electricus, UniProt O42275); assay: AChE selectivity (Ellman, acetylthiocholine); format: biochemical; details: tested to solubility limit; read-out: Ki Ee AChE
T1 construct: purchased Sigma Type V-S
T1 sequence (O42275 24-633): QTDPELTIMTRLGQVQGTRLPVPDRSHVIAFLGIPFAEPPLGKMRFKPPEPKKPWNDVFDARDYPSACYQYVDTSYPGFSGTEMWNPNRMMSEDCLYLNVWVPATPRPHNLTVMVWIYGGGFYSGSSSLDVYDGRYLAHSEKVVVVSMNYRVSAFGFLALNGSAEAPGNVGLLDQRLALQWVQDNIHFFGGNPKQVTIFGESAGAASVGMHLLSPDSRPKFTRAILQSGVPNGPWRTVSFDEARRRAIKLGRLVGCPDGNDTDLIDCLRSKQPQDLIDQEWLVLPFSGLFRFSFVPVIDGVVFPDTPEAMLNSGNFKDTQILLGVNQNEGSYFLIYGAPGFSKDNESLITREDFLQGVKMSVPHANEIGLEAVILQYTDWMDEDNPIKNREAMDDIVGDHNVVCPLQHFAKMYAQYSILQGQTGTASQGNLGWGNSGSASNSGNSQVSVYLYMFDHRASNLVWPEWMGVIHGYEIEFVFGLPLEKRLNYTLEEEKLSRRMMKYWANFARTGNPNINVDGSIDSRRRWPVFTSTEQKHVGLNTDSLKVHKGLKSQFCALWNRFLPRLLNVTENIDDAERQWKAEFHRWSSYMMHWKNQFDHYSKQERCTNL
Experimental: Initially, the KM for AChE with the substrate acetylthiocholine was determined by monitoring thiocholine production with 5,5′-dithiobis(2-nitrobenzoic acid) (DTNB) at 412 nm. Acetylthiocholine was prepared in assay buffer (100 mM NaH2PO4 pH 7.4) to 10 mM and serially diluted 1-in-2 to achieve concentrations from 10 mM to 0.08 mM while AChE was prepared in 20 mM NaH2PO4 pH 7.0 supplemented with 4 mg/ml BSA to 0.4 nM. […] The reaction was initiated by the addition of 20 μl AChE (40 pM final concentration). Product formation was monitored for six minutes at room temperature and the initial rates of thioester hydrolysis were determined by linear regression using GraphPad Prism. The Michalis constant was determined as before (FIG. 10).
AChE inhibition was determined by assaying the initial rate of acetylthiocholine hydrolysis in the presence of either neat DMSO or the boronic acid compounds in DMSO. […] Reactions were prepared by pipetting 178 μl assay buffer supplemented with acetylthiocholine (to a final concentration of 100 μM) and DTBN (to a final concentration of 300 μM) into wells of a 96-well plate. […] The reaction was initiated by the addition of 20 μl enzyme (final concentration 40 pM). Product formation was monitored for six minutes at room temperature and the initial rates of thioester hydrolysis were determined by linear regression. IC50 and Ki values were determined as described previously (FIG. 9).

[3] = test system: Lucilia cuprina larvae, laboratory drug-susceptible strain LS; assay: Lucilia cuprina larval bioassay (pupation rate), laboratory strain; format: in vivo; details: for synergism with diazinon (in words): susceptible strain
Experimental: Inhibitor efficacy was determined by treating larvae with diazinon over a range of concentrations, in the presence or absence of the compounds at constant concentrations, and comparing pupation rates.
Two strains of L. cuprina were used: 1) a laboratory reference drug-susceptible strain, LS, derived from collections in the Australian Capital Territory over 40 years ago, with no history of exposure to insecticides; and 2) a field-collected strain, Tara, resistant to diazinon and diflubenzuron (Levot, G. W. & Sales, N. New high level resistance to diflubenzuron detected in the Australian sheep blowfly, Lucilia cuprina (Wiedemann) (Diptera: Calliphoridae). Gen. Appl. Entomol. 31, 43-46 (2002)). The LcαE7 gene was sequenced in each of the strains. Briefly, genomic DNA was prepared from 20 adult female flies from each strain using the DNeasy Blood and Tissue kit (Qiagen). PCR was performed with primers specific to the LcαE7 gene, and the product was cloned into a pGEM-T EASY vector (Promega). Eight clones of the susceptible strain and 10 clones of the resistant strain were sequenced using M13 forward and reverse primers.
Each experiment utilized 50 larvae at each diazinon/malathion concentration. Experiments were replicated three times for diazinon, and twice for malathion. The insecticidal effects were defined by measuring the pupation rate. […] Compounds were also without diazinon or malathion at 1 mg per assay.

H23 = assay: Cell toxicity panel, viability (luminescence); format: cell-based, human; details: Homo sapiens, NCI-H23; Readout: Luminescence; read-out: IC50 Viability Cells, Cell line: H23
Experimental: as §1

Row | SMILES | toxicity of the boronic acid derivative alone (in words) [1] | efficacy on addition of the compound compared with CPE used alone (in words) [1] | Percentage of efficacy ([1]; 1 DAT) [%] | Percentage of efficacy ([1]; 3 DAT) [%] | Percentage of efficacy ([1]; 6 DAT) [%] | IC50 (293T) [µM] | IC50 (Hela) [µM] | IC50 (Colo205) [µM] | IC50 (PC3) [µM] | IC50 (HCT116) [µM] | IC50 (HT29) [µM] | IC50 (HB-2 cells) [µM] | IC50 (MDA-MB-231 cells) [µM] | Ki [2] [µM] | synergism with diazinon (in words) [3] | toxicity to HB-2 cells (in words) (HB-2 cells) | further results
1 | CC(C)Oc1cc(Br)cc(B(O)O)c1 [Compound 3.7, 3-Bromo-5-isopropoxyphenylboronic acid] | Absence of significant toxicity | increased significantly the efficacy | 3 | 4 | 26 |  |  |  |  |  |  |  |  |  |  |  | Evaluation of Larvae number, Mean ([1]; 1 DAT): 11.7; Evaluation of Larvae number, Mean ([1]; 3 DAT): 11; Evaluation of Larvae number, Mean ([1]; 6 DAT): 8
2 | OB(O)c1ccc2ccccc2c1 [Compound 4] |  |  |  |  |  | > 99.8 | 32.7 | > 99.8 | > 99.8 | > 99.8 | > 99.8 | > 100 | > 100 | > 1000 |  |  | 
3 | Cc1ccc(B(O)O)cc1OCc1ccccc1 [Compound 2] |  |  |  |  |  | 42.9 | 4 | 91.5 | 49.1 | 62.8 | 34.1 | 20.5 | > 100 | > 300 | No synergism was observed | low toxicity | IC50 (H23): > 99.8 µM
4 | OB(O)c1ccccc1 [PBA, phenylboronic acid, reference compound] |  |  |  |  |  |  |  |  |  |  |  |  |  | > 10000 |  |  | 
5 | OB(O)c1cc(Br)cc(Oc2ccccc2)c1 [Compound 3.10, 3-Bromo-5-phenoxyfenylboronic acid] | Absence of significant toxicity | increased significantly the efficacy | 0 | 0 | 22 |  |  |  |  |  |  |  |  |  | synergism was observed | do not exhibit any cellular toxicity | reduction of malathion EC50 compared to a malathion only control ([3]; laboratory strain): 16 fold; toxicity to MDA-MB-231 cells (in words) (MDA-MB-231 cells; 48 h, up to 100 μM): do not exhibit any cellular toxicity
